The values that follow come from US10201531B2, “Indazolyl-oxo-isothiazole compounds” (MOCHIDA PHARMACEUTICAL CO., LTD., priority 2015, dated 2019).

One may read the EC50 as the midpoint of the concentration-response curve. Lower therefore signals greater potency.

SMILES strings stand for the structures. Bounds are passed on as bounds.

The subject of one assay is Nrf2. As to the kind of experiment: Evaluation of Nrf2 activation ability (Nrf2d-LacZ / Keap1 HEK293 reporter, Beta-Glo luminescence). Particulars: Pharmacological Test Example 1, rated A/B/C. The assay is classed as cell-based, human. An outline of the steps: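 HEK293 cells stably expressing a human Nrf2 degron–LacZ fusion plus human Keap1 were exposed to compound for 3 h at 37° C. Reporter β-galactosidase was read by Beta-Glo luminescence after 1 h at RT. Activation is given as % of the signal with 100 nM CDDO-Im.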
For `Cc1nn(-c2cc(O)n[s+]2[O-])c(C)c1C1=CCCCC1` (centres unmarked) [Example 315], the EC50 was 1 to 5 µM.

The molecule `Cc1nn(-c2cc(O)n[s+]2[O-])c(C)c1C1=CCC(C)(C)CC1` (centres unmarked) [Example 316] displayed an EC50 of 1 to 5 µM.

`CCOC(=O)C1CC=C(c2c(C)nn(-c3cc(O)n[s+]3[O-])c2C)CC1` (centres unmarked) [Example 317] came in with a concentration giving a half-maximal response (EC50) of 1 to 5 µM.

`[O-][s+]1nc(O)cc1-n1cc(/C=C/c2ccccc2)cn1` (centres unmarked) [Example 318]: the EC50 is 1 to 5 µM.

In the case of `[O-][s+]1nc(O)cc1-n1cc(-c2ccc(N3CCCCC3)nc2)cn1` (centres unmarked) [Example 321], the EC50 lay in the range of 1 to 5 µM.

In turn, `[O-][s+]1nc(O)cc1-n1cc(-c2ccc(N3CCCC3)nc2)cn1` (centres unmarked) [Example 322] came in with an EC50 of 1 to 5 µM.

In the case of `[O-][s+]1nc(O)cc1-n1cc(-c2ccc(C3CC3)nc2)cn1` (centres unmarked) [Example 323], the EC50 was < 1 µM.

As to `COC(=O)C1(c2ccc(-c3cnn(-c4cc(O)n[s+]4[O-])c3)cc2)CC1` (centres unmarked) [Example 324], the EC50 is < 1 µM.

`[O-][s+]1nc(O)cc1-n1cc(-c2cccc(-c3ccccc3)c2)cn1` (centres unmarked) [Example 326]: the EC50 was < 1 µM.

`[O-][s+]1nc(O)cc1-n1cc(-c2ccc(-c3ccccc3)cc2)cn1` (centres unmarked) [Example 327]: the EC50 is 1 to 5 µM.

Molecule `[O-][s+]1nc(O)cc1-n1cc(-c2ccccc2-c2ccccc2)cn1` (centres unmarked) [Example 328] came in with an EC50 of 1 to 5 µM.

As to `[O-][s+]1nc(O)cc1-n1cc(CCOc2ccccc2)cn1` (centres unmarked) [Example 329], the EC50 was in the range of 1 to 5 µM.

Turning to `COC(=O)c1ccccc1-c1cnn(-c2cc(O)n[s+]2[O-])c1` (centres unmarked) [Example 330], the EC50 lay within 1 to 5 µM.

As to `[O-][s+]1nc(O)cc1-n1cc(-c2ccc(Oc3ccccc3)cc2)cn1` (centres unmarked) [Example 333], the EC50 was < 1 µM.

In turn, `[O-][s+]1nc(O)cc1-n1cc(-c2ccccc2Oc2ccccc2)cn1` (centres unmarked) [Example 335] gave an EC50 of 1 to 5 µM.

In the case of `Cc1cccc(C)c1-c1cccc(COc2ccc(-c3cnn(-c4cc(O)n[s+]4[O-])c3)cc2)c1` (centres unmarked) [Example 338], the EC50 is 1 to 5 µM.

For the molecule `Cc1cc(OCCCS(C)(=O)=O)cc(C)c1-c1cccc(COc2ccc(-c3cnn(-c4cc(O)n[s+]4[O-])c3)cc2)c1` (centres unmarked) [Example 339], the EC50 lay within 1 to 5 µM.

With `[O-][s+]1nc(O)cc1-n1cc(-c2ccc3ccccc3c2)cn1` (centres unmarked) [Example 340], the EC50 was < 1 µM.

In the case of `[O-][s+]1nc(O)cc1-n1cc(-c2cccc3ccccc23)cn1` (centres unmarked) [Example 341], the EC50 was 1 to 5 µM.

Take `[O-][s+]1nc(O)cc1-n1cc(-c2ccc3c(c2)CCCC3)cn1` (centres unmarked) [Example 342]: the EC50 was < 1 µM.

`[O-][s+]1nc(O)cc1-n1cc(-c2cccc3cnccc23)cn1` (centres unmarked) [Example 343] displayed an EC50 of 1 to 5 µM.

Turning to `[O-][s+]1nc(O)cc1-n1cc(-c2cccc3cccnc23)cn1` (centres unmarked) [Example 344], the EC50 was < 1 µM.

For the molecule `[O-][s+]1nc(O)cc1-n1cc(C2=Cc3ccccc3C2)cn1` (centres unmarked) [Example 345], the EC50 is < 1 µM.

In the case of `[O-][s+]1nc(O)cc1-n1cc(-c2ccc3c(c2)OCCO3)cn1` (centres unmarked) [Example 346], the EC50 lay within 1 to 5 µM.

Turning to `CN1CCOc2cc(-c3cnn(-c4cc(O)n[s+]4[O-])c3)ccc21` (centres unmarked) [Example 347], the EC50 is < 1 µM.

As to `[O-][s+]1nc(O)cc1-n1cc(C2=Cc3ccccc3CC2)cn1` (centres unmarked) [Example 349], the half-maximal effective concentration (EC50) is < 1 µM.

Consider `[O-][s+]1nc(O)cc1-n1cc(-c2ccc3ncccc3c2)cn1` (centres unmarked) [Example 350], for which the EC50 was < 1 µM.

`[O-][s+]1nc(O)cc1-n1cc(-c2ccc3ccncc3c2)cn1` (centres unmarked) [Example 351] showed a 50% effective concentration (EC50) of 1 to 5 µM.

As to `Cn1ccc2c(-c3cnn(-c4cc(O)n[s+]4[O-])c3)cccc21` (centres unmarked) [Example 352], the EC50 was < 1 µM.

On to `Cn1ccc2ccc(-c3cnn(-c4cc(O)n[s+]4[O-])c3)cc21` (centres unmarked) [Example 353], for which the EC50 was < 1 µM.

In the case of `Cc1nc2cc(-c3cnn(-c4cc(O)n[s+]4[O-])c3)ccc2s1` (centres unmarked) [Example 354], the EC50 was < 1 µM.

As for `[O-][s+]1nc(O)cc1-n1cc(-c2cccc3ncccc23)cn1` (centres unmarked) [Example 355], the EC50 was in the range of 1 to 5 µM.

Molecule `[O-][s+]1nc(O)cc1-n1cc(-c2ccc3cnccc3c2)cn1` (centres unmarked) [Example 356] returned an EC50 of 1 to 5 µM.

Take `[O-][s+]1nc(O)cc1-n1cc(-c2ccc3cccnc3c2)cn1` (centres unmarked) [Example 357]: the concentration for a half-maximal effect (EC50) was < 1 µM.

For the molecule `Cn1ncc2c(-c3cnn(-c4cc(O)n[s+]4[O-])c3)cccc21` (centres unmarked) [Example 360], the EC50 is < 1 µM.

Take `N#Cc1ccc(Oc2ccc(-c3cnn(-c4cc(O)n[s+]4[O-])c3)cc2)cc1` (centres unmarked) [Example 362]: the EC50 was < 1 µM.

As to `[O-][s+]1nc(O)cc1-n1cc(-c2ccccc2)cn1` (centres unmarked) [Example 363], the EC50 was < 1 µM.

Molecule `O=S(=O)(c1cccc(COc2ccc(-c3cnn(-c4cc(O)n[s+]4[O-])c3)cc2)c1)N1CCCCC1` (centres unmarked) [Example 366] yielded a concentration giving a half-maximal response (EC50) of 1 to 5 µM.

Turning to `[O-][s+]1nc(O)cc1-n1cc(-c2cccc(C(F)(F)F)c2)cn1` (centres unmarked) [Example 367], the EC50 is < 1 µM.

Staying with this assay, now noted: rated A/B/C, Pharmacological Test Example 1.
Take `[O-][s+]1nc(O)cc1-n1ncc2nc(Cl)ccc21` (centres unmarked) [Example 227]: the half-maximal effective concentration (EC50) lay in the range of 1 to 5 µM.

`Cc1cc2cnn(-c3cc(O)n[s+]3[O-])c2cn1` (centres unmarked) [Example 229] yielded an EC50 of 1 to 5 µM.

In the case of `[O-][s+]1nc(O)cc1-n1ncc2ccncc21` (centres unmarked) [Example 231], the EC50 was 5 to 10 µM.

Turning to `[O-][s+]1nc(O)cc1-n1ncc2cc(-c3ccccc3)ncc21` (centres unmarked) [Example 233], the EC50 is < 1 µM.

For the molecule `[O-][s+]1nc(O)cc1-n1ncc2cc(Br)ncc21` (centres unmarked) [Example 234], the EC50 lay within 1 to 5 µM.

With `[O-][s+]1nc(O)cc1-n1ncc2cc(-c3cccnc3)ncc21` (centres unmarked) [Example 235], the EC50 was in the range of 1 to 5 µM.

For `[O-][s+]1nc(O)cc1-n1ncc2cc(C3=CCOCC3)ncc21` (centres unmarked) [Example 236], the EC50 lay in the range of 1 to 5 µM.

`[O-][s+]1nc(O)cc1-n1ncc2cc(-c3ccc(C4CC4)nc3)ncc21` (centres unmarked) [Example 237]: the EC50 is < 1 µM.

In the case of `[O-][s+]1nc(O)cc1-n1ncc2cccnc21` (centres unmarked) [Example 238], the EC50 lay within 1 to 5 µM.

As to `[O-][s+]1nc(O)cc1-n1ncc2c3ccccc3ncc21` (centres unmarked) [Example 239], the EC50 was < 1 µM.

The molecule `[O-][s+]1nc(O)cc1-n1ncc2nc(-c3ccc(N4CCCC4)nc3)ccc21` (centres unmarked) [Example 240] had an EC50 of 1 to 5 µM.

For `[O-][s+]1nc(O)cc1-n1ncc2nc(-c3ccc(N4CCCCC4)nc3)ccc21` (centres unmarked) [Example 241], the EC50 was in the range of 1 to 5 µM.

On to `COc1cc2cnn(-c3cc(O)n[s+]3[O-])c2cn1` (centres unmarked) [Example 242], for which the EC50 was < 1 µM.

Take `CC(C)(C)OC(=O)N1CCc2cn(-c3cc(O)n[s+]3[O-])nc2CC1` (centres unmarked) [Example 244]: the EC50 was 1 to 5 µM.

For `CC(C)(C)OC(=O)N1Cc2cnn(-c3cc(O)n[s+]3[O-])c2C1` (centres unmarked) [Example 245], the EC50 fell in the range of 1 to 5 µM.

The molecule `CC(C)(C)OC(=O)N1Cc2cn(-c3cc(O)n[s+]3[O-])nc2C1` (centres unmarked) [Example 246] came in with an EC50 of 1 to 5 µM.

The molecule `CC(C)(C)OC(=O)N1CCc2c(cnn2-c2cc(O)n[s+]2[O-])C1` (centres unmarked) [Example 247] registered an EC50 of 1 to 5 µM.

In turn, `CC(C)(C)OC(=O)N1CCc2nn(-c3cc(O)n[s+]3[O-])cc2C1` (centres unmarked) [Example 248] yielded a concentration for a half-maximal effect (EC50) of 1 to 5 µM.

`CC(C)(C)OC(=O)N1CCCc2nn(-c3cc(O)n[s+]3[O-])cc2C1` (centres unmarked) [Example 250]: the EC50 was 1 to 5 µM.

For `CC(C)(C)OC(=O)N1CCc2c(c(I)nn2-c2cc(O)n[s+]2[O-])C1` (centres unmarked) [Example 251], the EC50 fell in the range of 5 to 10 µM.

The molecule `[O-][s+]1nc(O)cc1-n1ncc2c1CCN(Cc1ccccc1)C2` (centres unmarked) [Example 252] gave an EC50 of 1 to 5 µM.

Consider `COc1ccc(CN2CCc3c(cnn3-c3cc(O)n[s+]3[O-])C2)cn1` (centres unmarked) [Example 261], for which the EC50 was 1 to 5 µM.

Turning to `[O-][s+]1nc(O)cc1-n1ncc2c1CN(Cc1cnc3ccccc3c1)C2` (centres unmarked) [Example 263], the concentration for a half-maximal effect (EC50) lay within 1 to 5 µM.

`[O-][s+]1nc(O)cc1-n1ncc2c1CN(Cc1cccc(Oc3ccccc3)c1)C2` (centres unmarked) [Example 264] displayed an EC50 of 1 to 5 µM.

In turn, `[O-][s+]1nc(O)cc1-n1ncc2c1CN(Cc1ccc(C(F)(F)F)nc1)C2` (centres unmarked) [Example 265] yielded an EC50 of 5 to 10 µM.

`COc1ccc(CN2Cc3cnn(-c4cc(O)n[s+]4[O-])c3C2)cn1` (centres unmarked) [Example 266]: the concentration giving a half-maximal response (EC50) lay in the range of 5 to 10 µM.

Turning to `[O-][s+]1nc(O)cc1-n1cc2c(n1)CN(Cc1cccc(Oc3ccccc3)c1)C2` (centres unmarked) [Example 277], the EC50 lay within 1 to 5 µM.

Molecule `[O-][s+]1nc(O)cc1-n1cccn1` (centres unmarked) [Example 284] returned an EC50 of 1 to 5 µM.

Consider `[O-][s+]1nc(O)cc1-n1ccc(-c2cccc(Br)c2)n1` (centres unmarked) [Example 286], for which the EC50 was < 1 µM.

In the case of `[O-][s+]1nc(O)cc1-n1cc(I)cn1` (centres unmarked) [Example 287], the EC50 was 1 to 5 µM.

With `[O-][s+]1nc(O)cc1-n1cc(-c2cccc(Br)c2)cn1` (centres unmarked) [Example 290], the EC50 was < 1 µM.

As for `[O-][s+]1nc(O)cc1-n1cc(C2=CCC(F)(F)CC2)cn1` (centres unmarked) [Example 301], the EC50 was < 1 µM.

Molecule `CC(C)(C)OC(=O)N1CC=C(c2cnn(-c3cc(O)n[s+]3[O-])c2)CC1` (centres unmarked) [Example 304] had an EC50 of 1 to 5 µM.

Regarding `Cc1nn(-c2cc(O)n[s+]2[O-])c(C)c1I` (centres unmarked) [Example 305], the EC50 lay in the range of 1 to 5 µM.

The molecule `[O-][s+]1nc(O)cc1-n1cc(C2CCCCC2)cn1` (centres unmarked) [Example 306] gave an EC50 of 1 to 5 µM.

Regarding `[O-][s+]1nc(O)cc1-n1cc(CCc2ccccc2)cn1` (centres unmarked) [Example 307], the EC50 is < 1 µM.

On to `[O-][s+]1nc(O)cc1-n1cc(C2CCOCC2)cn1` (centres unmarked) [Example 308], for which the EC50 lay in the range of 5 to 10 µM.

Molecule `Cc1cc(-c2ccccc2)nn1-c1cc(O)n[s+]1[O-]` (centres unmarked) [Example 310] had a 50% effective concentration (EC50) of 1 to 5 µM.

In the case of `Cc1nn(-c2cc(O)n[s+]2[O-])c(C)c1-c1ccccc1` (centres unmarked) [Example 311], the EC50 lay within 5 to 10 µM.

For `Cc1nn(-c2cc(O)n[s+]2[O-])c(C)c1C1=CCC(F)(F)CC1` (centres unmarked) [Example 312], the EC50 lay in the range of 5 to 10 µM.

Take `Cc1nn(-c2cc(O)n[s+]2[O-])c(C)c1C1=CCN(C(=O)OC(C)(C)C)CC1` (centres unmarked) [Example 313]: the EC50 is 5 to 10 µM.
